Assay results: patent US20250066286A1, “COMPOSITIONS OF (Z)-ENDOXIFEN AND METHODS OF ENRICHMENT THEREOF” (Atossa Therapeutics, Inc., priority 2022, published 2025)
Converted amounts (≈) assume the structure as drawn. Like-named read-outs stand apart in the source and are kept apart here.

Assay: Solubility testing of (Z)-endoxifen in single solvents
Format: physicochemical
Settings: for solubility at 15 min: 25 °C, room temperature; for solubility at 15 min / solubility: thermodynamic from solid
Method: To test the solubility of (Z)-endoxifen in varying conditions, 10 mg of (Z)-endoxifen was added to a stoppered tube, and 0.01 ml of the selected solvent was added (1000 mg/ml solution). The tube was shaken vigorously for 1 minute and then incubated at a constant temperature of 25.0° C. for 15 minutes. If the solid was not completed dissolved, the tube was shaken again and placed at the constant temperature of 25.0° C. for another 15 minutes. If the solid was completely dissolved at this step, it was considered to be very soluble in the selected solvent system. If the solid was not dissolved by this step, another 0.09 ml was added (yielding a 100 mg/ml solution) and an attempt to further dissolve the solid was made by the same steps of shaking and incubating twice over as described previously. If the solid was completely dissolved at this step, it was considered freely soluble. If the solid was not dissolved by this step another 0.2 ml was added (yielding a 33.3 mg/ml solution) and an attempt to further dissolve the solid was made by the same steps of shaking and incubating twice over as described previously. If the solid was completely dissolved at this step, it was considered soluble. If the solid was not dissolved by this step another, 0.7 ml was added (yielding a 10 mg/ml solution) and an attempt to further dissolve the solid was made by the same steps of shaking and incubating twice over as described previously. If the solid was completely dissolved at this step, it was considered sparingly soluble. If the solid was not dissolved by this step the sample was considered to be slightly soluble or very slightly soluble and the solution was heated until the boiling point of the solvent system (max 100° C.) under stirring with a rate of 0.5° C. per minute temperature ramp rate to verify the solubility at high temperatures. The hot solution was after cooled to room temperature with a cooling rate of 0.5° C. per minute to verify if the sample had precipitated after up to 18 hours under magnetic stirring. The same procedure was also used for the solvent mixture solubility tests. The concentrations investigated for the solvent mixture stability were 40 mg/ml and 100 mg/ml. Some solutions in the following example were precipitated by cooling of the solution from a temperature between 50-100° C. to between 10-25° C. at a rate ranging from −0.2 to −0.5° C./minute resulting in a precipitate.

[1] = solvent butyl acetate, 100 mg/mL
[2] = solvent ethyl acetate, 100 mg/mL
[3] = solvent methyl isobutyl ketone (4-methyl-2-pentanone), 100 mg/mL
[4] = solvent methyl isobutyl ketone (4-methyl-2-pentanone), 200 mg/mL

Solubility HT (20 mg/mL): Sol. HT (solvent acetonitrile, high temperature): YES
Solubility HT (20 mg/mL): Re-PPT (solvent acetonitrile, on cooling): YES
Solubility HT (10 mg/mL): Clear point (solvent butyl acetate, 10 mg/mL): 50 °C
Solubility HT (10 mg/mL): Sol. HT (solvent butyl acetate, 10 mg/mL, high temperature): YES
Solubility HT (20 mg/mL): Clear point (solvent butyl acetate): 56.8 °C
Solubility HT (20 mg/mL): Sol. HT (solvent butyl acetate, high temperature): YES
Solubility HT (100 mg/mL): Clear point [1]: 94.5 °C
Solubility HT (100 mg/mL): Cloudy point [1]: 25 °C
Solubility HT (100 mg/mL): Sol. HT (solvent butyl acetate, 100 mg/mL, high temperature): YES
Solubility HT (100 mg/mL): Re-PPT (solvent butyl acetate, 100 mg/mL, on cooling): YES
Solubility HT (10 mg/mL): Clear point (solvent ethanol, 10 mg/mL): 34 °C
Solubility HT (10 mg/mL): Sol. HT (solvent ethanol, 10 mg/mL, high temperature): YES
Solubility HT (20 mg/mL): Clear point (solvent ethanol): 34 °C
Solubility HT (20 mg/mL): Sol. HT (solvent ethanol, high temperature): YES
Solubility HT (20 mg/mL): Re-PPT (solvent ethanol, on cooling): YES
Solubility HT (100 mg/mL): Clear point (solvent ethanol, 100 mg/mL): 66 °C
Solubility HT (100 mg/mL): Cloudy point (solvent ethanol, 100 mg/mL): 39.7 °C
Solubility HT (100 mg/mL): Sol. HT (solvent ethanol, 100 mg/mL, high temperature): YES
Solubility HT (100 mg/mL): Re-PPT (solvent ethanol, 100 mg/mL, on cooling): YES
Solubility HT (10 mg/mL): Clear point (solvent ethyl acetate, 10 mg/mL): 38 °C
Solubility HT (10 mg/mL): Sol. HT (solvent ethyl acetate, 10 mg/mL, high temperature): YES
Solubility HT (20 mg/mL): Clear point (solvent ethyl acetate): 49.2 °C
Solubility HT (20 mg/mL): Sol. HT (solvent ethyl acetate, high temperature): YES
Solubility HT (100 mg/mL): Clear point [2]: 74.4 °C
Solubility HT (100 mg/mL): Cloudy point [2]: 54.2 °C
Solubility HT (100 mg/mL): Sol. HT (solvent ethyl acetate, 100 mg/mL, high temperature): YES
Solubility HT (100 mg/mL): Re-PPT (solvent ethyl acetate, 100 mg/mL, on cooling): YES
Solubility HT (10 mg/mL): Clear point (solvent methyl isobutyl ketone (4-methyl-2-pentanone), 10 mg/mL): 44 °C
Solubility HT (10 mg/mL): Sol. HT (solvent methyl isobutyl ketone (4-methyl-2-pentanone), 10 mg/mL, high temperature): YES
Solubility HT (20 mg/mL): Clear point (solvent methyl isobutyl ketone (4-methyl-2-pentanone)): 49.3 °C
Solubility HT (20 mg/mL): Sol. HT (solvent methyl isobutyl ketone (4-methyl-2-pentanone), high temperature): YES
Solubility HT (100 mg/mL): Clear point [3]: 74.8 °C
Solubility HT (100 mg/mL): Re-PPT after 18 hours at −20° C. [3]: YES
Solubility HT (100 mg/mL): Sol. HT (solvent methyl isobutyl ketone (4-methyl-2-pentanone), 100 mg/mL, high temperature): YES
Solubility HT (200 mg/mL): Clear Point [4]: 84 °C
Solubility HT (200 mg/mL): Cloudy point [4]: 48.5 °C
Solubility HT (200 mg/mL): Sol. HT (solvent methyl isobutyl ketone (4-methyl-2-pentanone), 200 mg/mL, high temperature): YES
Solubility HT (200 mg/mL): Re-PPT (solvent methyl isobutyl ketone (4-methyl-2-pentanone), 200 mg/mL, on cooling): YES
Solubility HT (10 mg/mL): Clear point (solvent toluene, 10 mg/mL): 66 °C
Solubility HT (10 mg/mL): Sol. HT (solvent toluene, 10 mg/mL, high temperature): YES
Solubility HT (20 mg/mL): Clear point (solvent toluene): 77.8 °C
Solubility HT (20 mg/mL): Sol. HT (solvent toluene, high temperature): YES
Solubility HT (100 mg/mL): Clear point (solvent toluene, 100 mg/mL): 96.6 °C
Solubility HT (100 mg/mL): Cloudy point (solvent toluene, 100 mg/mL): 25 °C
Solubility HT (100 mg/mL): Sol. HT (solvent toluene, 100 mg/mL, high temperature): YES
Solubility HT (100 mg/mL): Re-PPT (solvent toluene, 100 mg/mL, on cooling): YES
solubility at 15 min (t-butyl methyl ether, organic solvent or mixture, t-butyl methyl ether, read-out: Solubility): < 10000 µg/mL
solubility (t-butyl methyl ether, organic solvent or mixture, t-butyl methyl ether, high temperature, read-out: Solubility): < 10000 µg/mL
solubility at 15 min (tetrahydrofuran, organic solvent or mixture, solvent tetrahydrofuran, read-out: Solubility at RT): 111000 to 125000 µg/mL (≈ 297 to 335 mM)
solubility at 15 min (toluene, organic solvent or mixture, solvent toluene, read-out: Solubility at RT): 10000 µg/mL (≈ 26.8 mM)
solubility at 15 min (toluene, organic solvent or mixture, toluene, read-out: Solubility): 10000 µg/mL (≈ 26.8 mM)
solubility (toluene, organic solvent or mixture, toluene, high temperature, read-out: Solubility): 20000 to 100000 µg/mL (≈ 53.5 to 268 mM)
solubility at 15 min (water, water, solvent water, read-out: Solubility at RT): < 10000 µg/mL
solubility at 15 min (water, water, water, read-out: Solubility): < 10000 µg/mL
solubility (water, 100 °C, water, solvent water, 10 mg/mL, high temperature, read-out: Solubility HT (10 mg/mL): Sol. HT): < 10000 µg/mL
solubility (water, 100 °C, water, water, high temperature, read-out: Solubility): < 10000 µg/mL
SMILES: CC/C(=C(\c1ccc(O)cc1)c1ccc(OCCNC)cc1)c1ccccc1 [(Z)-endoxifen, (Z)-4-(1-(4-(2-(methylamino)ethoxy)phenyl)-2-phenylbut-1-enyl)phenol]
